{"source": "patent US7887828B2", "about": "“Dual action organic formulation to control two stages of insect pests” (ISCA Technologies, Inc., priority 2006, dated 2011)", "origin": "cited, not measured here", "key": {"[1]": {"tested_on": "mammalian and avian species", "conditions": "as indicated by DAS"}, "gypsy moth larvae [2]": {"tested_on": "gypsy moth larvae", "conditions": "16 hours after a 2 minute crawling exposure to glass coated with a 4 mg/litre solution"}, "gypsy moth larvae [3]": {"tested_on": "gypsy moth larvae", "conditions": "3-day exposure; 13-day evaluation; 2nd instar larvae; treated red oak leaf disks"}, "gypsy moth larvae [4]": {"tested_on": "gypsy moth larvae"}}, "data": [{"substance": "spinosad", "values": [{"measurement": "toxicity to mammalian and avian species", "setting": "[1]", "result": "little or no toxicity"}, {"measurement": "treated larvae paralyzed", "setting": "gypsy moth larvae [2]", "result": 50, "unit": "%"}, {"measurement": "LC50", "setting": "gypsy moth larvae [3]", "result": 0.0015, "unit": "mg AI/cm2"}, {"measurement": "larval populations reduced", "setting": "gypsy moth larvae [4]; 3±50 mg/litre applied to run-off, ornamental style applications", "result": "95±100", "unit": "%"}, {"measurement": "population reduction", "setting": "gypsy moth larvae [4]; application rate of 0.75 mg/litre", "result": "large population reductions"}, {"measurement": "concentrations that effectively controlled 2nd instar larvae", "setting": "gypsy moth larvae [4]; applied to foliage to run-off, laboratory potted red oak seedlings and field 4 m-tall birch trees", "result": "3 to 50", "unit": "mg/L"}]}]}
